The source of these data is US11766451B2, “Utilizing polymers and antibiotics to enhance antimicrobial activity and inhibit antibiotic resistance” (International Business Machines Corporation, priority 2018, dated 2023).

Entries after “also recorded” stand apart in the source; their conditions may differ.

The test system of test [1] is A. baumannii BAA-1709. The test is classed as cell-based, Acinetobacter baumannii. The conditions noted are these: for MIC of pure antibiotic over 30 generations: antibiotic only; for Delay of resistance of the bacteria against the antibiotic: in the presence of example polycarbonate 200 at ¼×MICp. The protocol: To monitor development of antibiotic 306 resistance in A. baumannii, antibiotics 306 at sub-lethal doses were used in combination with the example polycarbonate 200 to repeatedly treat A. baumannii BAA-1709. With concentrations of the example polycarbonate 200 fixed at ¼ or ½×MIC, the MIC of antibiotics 306 was measured by the broth microdilution method. At half of the antibiotic 306 MIC, the survived bacteria, which reached logarithmic growth phase, were collected for MIC measurement of the subsequent passage. The development of antibiotic 306 resistance was monitored for 30 passages and the MIC of the antibiotics 306 at ¼ or ½×MIC of the antimicrobial polymer (e.g., characterized by the first chemical structure 100 and/or the second chemical structure 102) was recorded for each passage. The resistance development of antibiotics 306 only and polymer only was also evaluated over 30 passages.

The next test has as its system A. baumannii (BAA-1709). In words: Checkerboard / broth microdilution MIC. The conditions noted are these: for Change of antibiotic MIC as polymer concentration increased from 1/16×MICp to ½×MICp: with example polycarbonate 200 (table 500); for MIC of rifampicin at 1/2 × MIC of adjuvant: rifampicin with the labelled adjuvant at 1/2 × its MIC; for MIC of rifampicin at 1/4 × MIC of adjuvant: rifampicin with the labelled adjuvant at 1/4 × its MIC; for MIC of rifampicin at 1/8 × MIC of adjuvant: rifampicin with the labelled adjuvant at 1/8 × its MIC. The test is classed as cell-based, Acinetobacter baumannii. From the text: To evaluate antibacterial activity of antimicrobial polymer-antibiotic 306 combination therapies, the checkerboard method was used to create chart 400. By using this method, the minimum inhibitory concentration (“MIC”) of antibiotics 306, antimicrobial polymers (e.g., characterized by the first chemical structure 100 and/or the second chemical structure 102), and/or antibiotics 306/antimicrobial polymers (e.g., characterized by the first chemical structure 100 and/or the second chemical structure 102) combination at varying polymer concentrations can be determined. MIC was measured based on the broth microdilution method. 50 microliters (“μL”) of the example polycarbonate 200 at a serious of concentrations (micrograms per milliliter (μg/mL)) was added into a 96-well plate. […] Microbes (e.g., S. aureus, A. baumannii, E. coli, and/or P. aeruginosa) at exponential growth phases were diluted with […] (“MHB”) to about 10^5 colony forming units (“CFU”) per milliliter (CFU/mL), and 100 μL of diluted microbes were added into each well of the 96-well plate with 100 μL of antimicrobial polymer-antibiotic 306 mixture. The 96-well plate was incubated at 37 degrees Celsius (“° C.”) under shaking of 100 revolutions per minute (“rpm”) for about 18 to 20 hours. The concentration at which there was no bacterial growth observed by naked eyes or a microplate reader at 600 nanometers (nm) was recorded as the MIC. The checkerboard experiments were performed three times for each antimicrobial polymer-antibiotic 306 combination.
In general terms: Broth dilution looks for growth in wells or tubes with falling amounts of substance.

Another test concerns E. coli. In words: Checkerboard / broth microdilution MIC. The test is classed as cell-based, Escherichia coli. An excerpt:
To evaluate antibacterial activity of antimicrobial polymer-antibiotic 306 combination therapies, the checkerboard method was used to create chart 400. By using this method, the minimum inhibitory concentration (“MIC”) of antibiotics 306, antimicrobial polymers (e.g., characterized by the first chemical structure 100 and/or the second chemical structure 102), and/or antibiotics 306/antimicrobial polymers (e.g., characterized by the first chemical structure 100 and/or the second chemical structure 102) combination at varying polymer concentrations can be determined. MIC was measured based on the broth microdilution method. 50 microliters (“μL”) of the example polycarbonate 200 at a serious of concentrations (micrograms per milliliter (μg/mL)) was added into a 96-well plate. […] Microbes (e.g., S. aureus, A. baumannii, E. coli, and/or P. aeruginosa) at exponential growth phases were diluted with […] (“MHB”) to about 10^5 colony forming units (“CFU”) per milliliter (CFU/mL), and 100 μL of diluted microbes were added into each well of the 96-well plate with 100 μL of antimicrobial polymer-antibiotic 306 mixture. […] The concentration at which there was no bacterial growth observed by naked eyes or a microplate reader at 600 nanometers (nm) was recorded as the MIC. […]

For test [2], the system named is antibiotic-resistant strains of bacteria (e.g., A. baumannii). In words: MIC against susceptible and antibiotic-resistant strains (table 700). The test is classed as cell-based, Acinetobacter baumannii. An excerpt: In addition to antibiotic-susceptible bacteria, antibiotic-resistant strains of bacteria (e.g., indicated with a star in FIG. 7) were also employed to study the effect of antibiotic 306/example polycarbonate 200 combination on antibacterial activity.

A further test has as its system A. baumannii strains. In words: Concentrations (1/2 MIC, MBC) for 18 h bactericidal plate test. Particulars: Acinetobacter baumannii; all the A. baumannii strains; used together with example polycarbonate 200 at ½ MIC; read-out: minimum bactericidal concentration (“MBC”). Format: cell-based. From the text:
(§1) FIG. 13 illustrates a diagram of example, non-limiting table 1300 and/or table 1302, which can depict the synergistic effect of one or more combination therapies, which can comprise one or more antimicrobial polymers (e.g., characterized by the first chemical structure 100 and/or the second chemical structure 102) in combination with one or more antibiotics 306, against various bacteria (e.g., Gram-negative bacteria and/or Gram-positive bacteria) including antibiotic-resistant strains. Repetitive description of like elements employed in other embodiments described herein is omitted for sake of brevity.
(§2) Further, FIG. 13 illustrates a diagram of example, non-limiting photos 1304 of three-component plates with bacteria treated by example polycarbonate 200, rifampicin, and/or a combination thereof for 18 hours. […] The data and/or photos 1304 depicted in FIG. 13 can be representative of three biological replicates, with the “*” denoting antibiotic-resistant strains of bacteria.

For another test, the system named is E. aerogenes. The description is as above. Format: cell-based. The conditions noted are these: Klebsiella aerogenes, used together with example polycarbonate 200 at ½ MIC, read-out: minimum bactericidal concentration (“MBC”).
Source text: as §1, §2

The next test deals with K. pneumoniae. The test is described as above. The conditions noted are these: Klebsiella pneumoniae, used together with example polycarbonate 200 at ½ MIC, read-out: minimum bactericidal concentration (“MBC”). The test is classed as cell-based.
Source text: as §1, §2

Test [3] relates to A. baumannii BAA-1709. In words: Killing kinetics (CFU counting) under combination treatments. The conditions noted are these: rifampicin 0.008 μg/mL plus the labelled adjuvant at ½×MIC; up to 24 h. Format: cell-based, Acinetobacter baumannii. An excerpt: To compare the efficiency of an antimicrobial polymer/rifampicin combination and an antimicrobial polymer/polymyxin combination, the CFU of A. baumannii BAA-1709 under different combination treatments were studied. […] The results of CFU counting are presented as mean±standard deviation of triplicate samples.

The test system of test [4] is A. baumannii (e.g., ATCC BAA-1709). In words: Bacterial count after 18 hours of treatment. Format: cell-based, Acinetobacter baumannii. Particulars: treatment for 18 hours; polymer 3.9 or 7.8 μg/mL (graph 1002). As to the method:
The results shown in graph 1002 were achieved after treatment for 18 hours.
Further, FIG. 11 illustrates a diagram of example, non-limiting graph 1102, graph 1110, and/or graph 1118, which can depict that one or more combination therapies comprising one or more antimicrobial polymers (e.g., characterized by the first chemical structure 100, such as example polycarbonate 200, and/or the second chemical structure 102) and one or more antibiotics 306 can show stronger synergistic bactericidal effect than traditional combination therapies as evidenced by the bacterial count after 18 hours of treating A. baumannii (e.g., ATCC BAA-1709).

Setting [5] is: repeated sub-MIC exposure, no polymer.

As for `CC1(C)S[C@@H]2[C@H](NC(=O)Cc3ccccc3)C(=O)N2[C@H]1C(=O)O` [Penicillin G, Benzylpenicillin], in the test on A. baumannii BAA-1709 [1], the “MIC of pure antibiotic over 30 generations” value was “increased” and the “Delay of resistance of the bacteria against the antibiotic” value came to 22 generations. Moreover, in the test with A. baumannii BAA-1709 [1] (setting [5]), the “MIC of pure antibiotic at generation 5” value was 125 µg/mL and the “MIC of pure antibiotic at generation 30” value turned out to be 1000 µg/mL. Moreover, the “MIC of pure antibiotic before resistance evolution” value with A. baumannii BAA-1709 [1] (starting value) amounted to 62.5 µg/mL. Also, the “MIC of antibiotics 306 w/o polymer” value with A. baumannii (BAA-1709) (antibiotic alone, no polymer) stood at 62.5 µg/mL. Besides, the “Change of antibiotic MIC as polymer concentration increased from 1/16×MICp to ½×MICp” value in the test with A. baumannii (BAA-1709) is “significantly reduced”. The “MIC of antibiotics 306 at 1/2 × MICp” value in the test on A. baumannii (BAA-1709) (with example polyionene 206 at 1/2 × MICp (MICp 7.8 μg/mL)) was determined as 7.8 µg/mL. For the same compound, the “MIC of antibiotics 306 at 1/4 × MICp” value in the test on A. baumannii (BAA-1709) (with example polyionene 206 at 1/4 × MICp (MICp 7.8 μg/mL)) stood at 31.3 µg/mL. Moreover, the “MIC of antibiotics 306 at 1/8 × MICp” value with A. baumannii (BAA-1709) (with example polyionene 206 at 1/8 × MICp (MICp 7.8 μg/mL)) was found to be 62.5 µg/mL. Also, in the test on A. baumannii (BAA-1709) (with example polyionene 206 at 1/16 × MICp (MICp 7.8 μg/mL)), the “MIC of antibiotics 306 at 1/16 × MICp” value was determined as 62.5 µg/mL.

With `CC[C@H]1OC(=O)[C@H](C)[C@@H](O[C@H]2C[C@@](C)(OC)[C@@H](O)[C@H](C)O2)[C@H](C)[C@@H](O[C@@H]2O[C@H](C)C[C@H](N(C)C)[C@H]2O)[C@](C)(O)C[C@@H](C)CN(C)[C@H](C)[C@@H](O)[C@]1(C)O` [azithromycin], the “MIC of pure antibiotic over 30 generations” value in the test on A. baumannii BAA-1709 [1] is recorded as “increased”. Besides, in the test with A. baumannii BAA-1709 [1] (polymer fixed at ¼×MICp), the “MIC of antibiotic over 30 generations in the presence of example polycarbonate 200 at ¼×MICp” value is recorded as “did not change”. Further, the “Effect of example polycarbonate 200 on antibiotic potency” value in the test on E. coli is given as “enhance the potency”. In the test with A. baumannii (BAA-1709), the “Change of antibiotic MIC as polymer concentration increased from 1/16×MICp to ½×MICp” value is given as “significantly reduced”.

For the compound `CO[C@H]1/C=C/O[C@@]2(C)Oc3c(C)c(O)c4c(O)c(c(/C=N/N5CCN(C)CC5)c(O)c4c3C2=O)NC(=O)/C(C)=C\C=C\[C@H](C)[C@H](O)[C@@H](C)[C@@H](O)[C@@H](C)[C@H](OC(C)=O)[C@@H]1C` [rifampicin], in test [2] (antibiotic-resistant strains, with example polycarbonate 200), the “MIC of rifampicin at antimicrobial polymer concentration of ¼×MICp” value amounted to 0.5 µg/mL. The “MIC reduction of rifampicin with polycarbonates of first chemical structure 100” value in test [2] (both susceptible and antibiotic-resistant A. baumannii strains) is reported as “up to 2048 fold”. Further, the values for the MBC in the test on A. baumannii strains, in the test on E. aerogenes and in the test with K. pneumoniae were 0.015 µg/mL, 2 µg/mL and 0.5 µg/mL, respectively. Further, the “Delay of resistance of the bacteria against the antibiotic” value in the test on A. baumannii BAA-1709 [1] is recorded as 17 generations. The “MIC reduction at ½×MICp of the antimicrobial polymer” value in the test with E. coli (with example polycarbonate 200 at ½×MICp) was “over 500 fold”. In addition, the “MIC reduction compared with pure rifampicin” value with A. baumannii (BAA-1709) (with example polycarbonate 200) is reported as “over 2000 folds”. For the same compound, in the test with A. baumannii (BAA-1709) (with example polycarbonate 200 at ¼×MICp (e.g., 4 μg/mL)), the “MIC of antibiotic in the presence of the antimicrobial polymer at ¼×MICp” value came out at 0.13 µg/mL. In the test with A. baumannii (BAA-1709) (with example polycarbonate 200 at ½×MICp (e.g., 8 μg/mL)), the “MIC of antibiotic in the presence of the antimicrobial polymer at ½×MICp” value was 0.002 µg/mL.

Regarding Polymyxin B, in the test on A. baumannii BAA-1709 [3], the “Bactericidal activity of rifampicin combined with adjuvant (CFU over time)” value is given as “no bactericidal activity over 24 h; also recorded: no bactericidal effect up to 24 hours”. Besides, in the test on A. baumannii (BAA-1709), the “MIC of rifampicin at 1/2 × MIC of adjuvant” value was determined as 0.5 µg/mL, the “MIC of rifampicin at 1/4 × MIC of adjuvant” value amounted to 2.0 µg/mL and the “MIC of rifampicin at 1/8 × MIC of adjuvant” value was 3.9 µg/mL.

Take colistin: in test [4], the “Effective dose of colistin as concentration of example polycarbonate 200 increases” value is listed as “reduced”. Besides, the “Bactericidal activity of rifampicin combined with adjuvant (CFU over time)” value in the test on A. baumannii BAA-1709 [3] is on record as “no bactericidal activity over 24 h; also recorded: no bactericidal effect up to 24 hours”. Further, in the test on A. baumannii (BAA-1709), the “MIC of rifampicin at 1/2 × MIC of adjuvant” value turned out to be 0.06 µg/mL, the “MIC of rifampicin at 1/4 × MIC of adjuvant” value worked out at 2.0 µg/mL and the “MIC of rifampicin at 1/8 × MIC of adjuvant” value stood at 3.9 µg/mL.
